# Reference: the supplement of paper PMC11208160
# Experiment: recombinant barcode read abundance after kanamycin selection (control-corrected) (log10(CPM+1)); higher = more efficient recombination; sequences stand for … in AGTGCAGAGAAAATCGGCCAGTTTTCTCTGCCTGCAGTCCGCATGCCGT…AGATTTATGCAGCGGACTGCCTTTCTCCCAAAGTGATAAACCGGACAGTATCATGGACCGGTTTTCCCGGTAATCCGTATTTGCAAGGTTGGTTTCACT; site = the 11-nt target
# Procedure: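 Pooled E. coli target-specificity screen for the IS621 bridge recombinase. Each library plasmid pairs an 11-nt target (CT core) with a bridge RNA whose target-binding loop (9-nt LTG + 4-nt RTG) is reprogrammed; the rest of the 177-nt WT IS621 bridge RNA scaffold is fixed. The plasmid is co-electroporated with a WT donor plasmid; recombinase is induced with 0.1 mM IPTG and recombinants are selected on kanamycin. Recombinant barcodes are sequenced, converted to CPM, averaged over two biological replicates and corrected by the unselected control CPM. Molecule = full bridge RNA written as DNA: LTG = specificity nt 1-9, RTG = reverse complement of specificity nt 8-11, in the WT scaffold.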
# 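Note: IS621 recombinase and bridge RNA in Escherichia coli cells.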
row,Sequence,recombinant barcode read abundance (log10)
1,ACGAACGCTTGGGTTCTAACCTGTTGCCT (site ACGACCGCTAG),0.344
2,ACGAACGCTTGGGTTCTAACCTGTTGCCT (site ACGAGCGCTAG),0.085
3,ACGAACGCTTGGGTTCTAACCTGTTGCCT (site ACGATCGCTAG),0.14
4,ACGAAGCCTTGGGTTCTAACCTGTTGCCT (site ACGAAGCCTAG),1.35
5,ACGAAGCCTTGGGTTCTAACCTGTTGCCT (site GCGACGCCTAG),0.19
6,ACGACTCCTTGGGTTCTAACCTGTTGCCT (site ACGACTACTAG),0.467
7,ACGACTCCTTGGGTTCTAACCTGTTGCCT (site ACGACTCCTAG),0.618
8,ACGACTCCTTGGGTTCTAACCTGTTGCCT (site ACGACTGCTAG),0.117
9,ACGACTCCTTGGGTTCTAACCTGTTGCCT (site ACGACTTCTAG),0.0781
10,ACGAGTCCTTGGGTTCTAACCTGTTGCCT (site ACGAGTCCTAC),0.112
11,ACGAGTCCTTGGGTTCTAACCTGTTGCCT (site ACGAGTCCTAG),1.36
12,ACGCACTCTTGGGTTCTAACCTGTTGCCT (site ACGCAATCTAG),0.02
13,ACGCACTCTTGGGTTCTAACCTGTTGCCT (site ACGCACTCTAG),0.131
14,ACGCACTCTTGGGTTCTAACCTGTTGCCT (site ACGCAGTCTAG),0.109
15,ACGCACTCTTGGGTTCTAACCTGTTGCCT (site ACGCATTCTAG),0.394
16,ACGCATACTTGGGTTCTAACCTGTTGCCT (site ACACATACTAG),0.196
17,ACGCATACTTGGGTTCTAACCTGTTGCCT (site ACGCATACTAG),0.0647
18,ACGCATCCTTGGGTTCTAACCTGTTGCCT (site AAGCATCCTAG),0.0107
19,ACGCATCCTTGGGTTCTAACCTGTTGCCT (site ACGCATCCTAG),0.0284
20,ACGCATCCTTGGGTTCTAACCTGTTGCCT (site AGGCATCCTAG),0.0797
21,ACGCATCCTTGGGTTCTAACCTGTTGCCT (site ATGCATCCTAG),0.11
22,ACGCCCTCTTGGGTTCTAACCTGTTGCCT (site ACGCCCTCTAG),0.0283
23,ACGCCCTCTTGGGTTCTAACCTGTTGCCT (site GCGCCCTCTAG),0.302
24,ACGCCTCCTTGGGTTCTAACCTGTTGCCA (site ACCCCTCCTTG),0.0961
25,ACGCCTCCTTGGGTTCTAACCTGTTGCCA (site ACGCCTCCTTG),0.371

row,Sequence,recombinant barcode read abundance (log10)
1,ACGCGAGCTTGGGTTCTAACCTGTTGCAG (site ACGCGAGCTCA),0.188
2,ACGCGAGCTTGGGTTCTAACCTGTTGCAG (site ACGCGAGCTCC),0.318
3,ACGCGAGCTTGGGTTCTAACCTGTTGCAG (site ACGCGAGCTCG),0.192
4,ACGCGAGCTTGGGTTCTAACCTGTTGCAG (site ACGCGAGCTCT),0.142
5,ACGCGAGCTTGGGTTCTAACCTGTTGCGG (site ACGCGAGCTCA),0.066
6,ACGCGAGCTTGGGTTCTAACCTGTTGCGG (site ACGCGAGCTCC),0.954
7,ACGCGAGCTTGGGTTCTAACCTGTTGCGG (site ACGCGAGCTCG),0.316
8,ACGCGAGCTTGGGTTCTAACCTGTTGCGG (site ACGCGAGCTCT),0.423
9,ACGCGGACTTGGGTTCTAACCTGTTGCCT (site ACGCCGACTAG),0
10,ACGCGGACTTGGGTTCTAACCTGTTGCCT (site ACGCGGACTAG),1.21
11,ACGCGTTCTTGGGTTCTAACCTGTTGCAT (site ACGCGTTCTAT),0.0272
12,ACGCGTTCTTGGGTTCTAACCTGTTGCAT (site CTAGACCCTCC),0.271
13,ACGGATCCTTGGGTTCTAACCTGTTGCAT (site ACGGATCCTAT),2.51
14,ACGGATCCTTGGGTTCTAACCTGTTGCAT (site GTCCTATCTTG),0.0315
15,ACGGCCTCTTGGGTTCTAACCTGTTGCTT (site ACGGCATCTAG),0.276
16,ACGGCCTCTTGGGTTCTAACCTGTTGCTT (site ACGGCCTCTAA),2.63
17,ACGGCGCCTTGGGTTCTAACCTGTTGCCT (site AAGGCGCCTAG),0.0538
18,ACGGCGCCTTGGGTTCTAACCTGTTGCCT (site ACGGCGCCTAG),1.12
19,ACGGCGCCTTGGGTTCTAACCTGTTGCCT (site AGGGCGCCTAG),0.101
20,ACGGCGCCTTGGGTTCTAACCTGTTGCCT (site ATGGCGCCTAG),0.182
21,ACGGGCTCTTGGGTTCTAACCTGTTGCTC (site ACGGGCTCTGA),1.53
22,ACGGGCTCTTGGGTTCTAACCTGTTGCTC (site CGACTTACTAT),0.164
23,ACGGGGTCTTGGGTTCTAACCTGTTGCCT (site ACGGGGTCTAG),2.64
24,ACGGGGTCTTGGGTTCTAACCTGTTGCCT (site CCGGGGTCTAG),0.637
25,ACGGGGTCTTGGGTTCTAACCTGTTGCCT (site GCGGGGTCTAG),0.123

row,Sequence,recombinant barcode read abundance (log10)
1,ACGGGGTCTTGGGTTCTAACCTGTTGCCT (site TCGGGGTCTAG),0.416
2,ACGGGTACTTGGGTTCTAACCTGTTGCCT (site ACGGGTACTAG),1.51
3,ACGGGTACTTGGGTTCTAACCTGTTGCCT (site ACTGGTACTAG),0.165
4,ACGTAACCTTGGGTTCTAACCTGTTGCCT (site ACGTAACCTAG),0.0547
5,ACGTAACCTTGGGTTCTAACCTGTTGCCT (site GTAACTACTGA),0.083
6,ACGTATGCTTGGGTTCTAACCTGTTGCAT (site ACGTATGCTAT),0.556
7,ACGTATGCTTGGGTTCTAACCTGTTGCAT (site TAAATCACTCG),0.0674
8,ACGTCTCCTTGGGTTCTAACCTGTTGCTG (site ACGACTCCTCA),0
9,ACGTCTCCTTGGGTTCTAACCTGTTGCTG (site ACGCCTCCTCA),0.175
10,ACGTCTCCTTGGGTTCTAACCTGTTGCTG (site ACGGCTCCTCA),0.0879
11,ACGTCTCCTTGGGTTCTAACCTGTTGCTG (site ACGTCTCCTCA),0.162
12,ACGTGCTCTTGGGTTCTAACCTGTTGCCT (site AAGTGCTCTAG),0.503
13,ACGTGCTCTTGGGTTCTAACCTGTTGCCT (site ACGTGCTCTAG),1.32
14,ACGTGCTCTTGGGTTCTAACCTGTTGCCT (site AGGTGCTCTAG),0.119
15,ACGTGCTCTTGGGTTCTAACCTGTTGCCT (site ATGTGCTCTAG),0.246
16,ACGTGGCCTTGGGTTCTAACCTGTTGCCA (site ACGTGGCCTTG),0.0442
17,ACGTGGCCTTGGGTTCTAACCTGTTGCCA (site ACGTGGTCTTA),0.275
18,ACGTGGCCTTGGGTTCTAACCTGTTGCTG (site ACGTGGCCTCA),1.05
19,ACGTGGCCTTGGGTTCTAACCTGTTGCTG (site ACTTGGCCTCA),0.618
20,ACGTGGTCTTGGGTTCTAACCTGTTGCTA (site ACGTGGCCTTG),0.534
21,ACGTGGTCTTGGGTTCTAACCTGTTGCTA (site ACGTGGTCTTA),0.582
22,ACTAACACTTGGGTTCTAACCTGTTGCCT (site ACTAACACTAG),1.23
23,ACTAACACTTGGGTTCTAACCTGTTGCCT (site CCTAACACTAG),0.0857
